As usually defined, the IC50 is the concentration needed to halve the response being measured.

Structures are written as SMILES. Bounds are passed on as bounds.

We go through 22 molecules from patent US20220033397A1, “PHARMACEUTICAL COMPOUNDS AND THEIR USE AS INHIBITORS OF UBIQUITIN SPECIFIC PROTEASE 19 (USP19)” (ALMAC DISCOVERY LIMITED, priority 2018, published 2022).

For the experiment, the target named is T1, Full-length USP19 (Homo sapiens, UniProt O94966).
T1 construct: Full-length USP19 was purchased from Boston Biochem (E-576); purchased Boston Biochem E-576
T1 sequence (O94966 1-1318): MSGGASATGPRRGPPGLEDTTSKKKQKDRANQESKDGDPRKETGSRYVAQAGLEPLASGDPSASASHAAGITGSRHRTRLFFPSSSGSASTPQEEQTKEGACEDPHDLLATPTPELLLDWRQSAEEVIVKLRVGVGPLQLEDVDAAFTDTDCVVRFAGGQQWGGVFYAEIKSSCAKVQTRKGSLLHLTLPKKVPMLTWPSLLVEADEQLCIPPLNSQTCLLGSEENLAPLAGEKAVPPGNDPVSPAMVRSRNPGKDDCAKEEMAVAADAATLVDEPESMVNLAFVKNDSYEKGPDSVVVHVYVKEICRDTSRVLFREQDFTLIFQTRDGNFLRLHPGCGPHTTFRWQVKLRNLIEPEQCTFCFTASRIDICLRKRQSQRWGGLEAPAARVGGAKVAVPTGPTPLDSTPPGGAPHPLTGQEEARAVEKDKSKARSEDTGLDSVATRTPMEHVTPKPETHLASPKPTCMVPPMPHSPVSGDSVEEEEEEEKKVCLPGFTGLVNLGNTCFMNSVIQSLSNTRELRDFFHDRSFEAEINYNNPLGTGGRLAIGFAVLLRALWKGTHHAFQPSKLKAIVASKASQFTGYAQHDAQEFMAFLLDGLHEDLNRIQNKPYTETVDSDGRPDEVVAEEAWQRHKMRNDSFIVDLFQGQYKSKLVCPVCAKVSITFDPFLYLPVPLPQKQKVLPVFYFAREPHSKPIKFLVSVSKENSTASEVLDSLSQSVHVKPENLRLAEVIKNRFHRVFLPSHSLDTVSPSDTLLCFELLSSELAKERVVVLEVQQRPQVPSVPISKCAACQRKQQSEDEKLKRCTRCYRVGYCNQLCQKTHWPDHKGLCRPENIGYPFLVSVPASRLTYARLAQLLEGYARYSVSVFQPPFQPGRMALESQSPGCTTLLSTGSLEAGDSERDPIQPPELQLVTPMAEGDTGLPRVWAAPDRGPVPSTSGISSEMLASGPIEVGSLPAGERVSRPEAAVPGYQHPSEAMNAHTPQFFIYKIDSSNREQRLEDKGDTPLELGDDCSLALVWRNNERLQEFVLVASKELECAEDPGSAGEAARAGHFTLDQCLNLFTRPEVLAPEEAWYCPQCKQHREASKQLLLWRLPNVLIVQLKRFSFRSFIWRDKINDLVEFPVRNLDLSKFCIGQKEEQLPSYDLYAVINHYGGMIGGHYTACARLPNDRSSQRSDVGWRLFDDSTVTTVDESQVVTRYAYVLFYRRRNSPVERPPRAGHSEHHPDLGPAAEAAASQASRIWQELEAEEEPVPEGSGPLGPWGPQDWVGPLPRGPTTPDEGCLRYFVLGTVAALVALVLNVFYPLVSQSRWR
The experiment in a line: USP19 fluorescence polarisation (FP) homogeneous assay with Ubiquitin-Lys-TAMRA substrate. It is filed as biochemical. To be noted: 2.5 nM USP19, 30 min pre-incubation, average of at least two duplicate experiments. The method in brief: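 Full-length USP19 preincubated 30 min at RT with inhibitor (200 μM to 2 μM series, 8–18 points) before adding 500 nM Ubiquitin-Lys-TAMRA substrate.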
A general note: Fluorescence polarisation rises when a labelled molecule tumbles more slowly, as on binding a larger partner.

`C[C@H](CC1CCCCC1)C(=O)N1CCC(O)(Cn2cnc3c(cnn3-c3ccccc3)c2=O)C2(CCCC2)C1` (stereo partly drawn) [Example 176, 5-((7-((R)-3-Cyclohexyl-2-methylpropanoyl)-10-hydroxy-7-azaspiro[4.5]decan-10-yl)methyl)-1-phenyl-1,5-dihydro-4H-pyrazolo[3,4-d]pyrimidin-4-one]: the IC50 was under 0.5 µM.
With `C[C@H](CC(F)(F)F)C(=O)N1CCC(O)(Cn2cnc3c(cnn3-c3ccccc3)c2=O)C2(CCCC2)C1` (stereo partly drawn) [Example 177, 5-((10-Hydroxy-7-((R)-4,4,4-trifluoro-2-methylbutanoyl)-7-azaspiro[4.5]decan-10-yl)methyl)-1-phenyl-1,5-dihydro-4H-pyrazolo[3,4-d]pyrimidin-4-one] the figure was 5 to 50 µM; with `O=C(N1CCC(O)(Cn2cnc3c(cnn3-c3ccccc3)c2=O)C2(CCCC2)C1)N1CCNC[C@H]1c1ccccc1` (stereo partly drawn) [Example 178, 5-((10-Hydroxy-7-((R)-2-phenylpiperazine-1-carbonyl)-7-azaspiro[4.5]decan-10-yl)methyl)-1-phenyl-1,5-dihydro-4H-pyrazolo[3,4-d]pyrimidin-4-one], under 0.5 µM; with `Cn1cc2ncn(CC3(O)CCN(C(=O)N4CCNC[C@H]4c4ccccc4)CC34CCCC4)c(=O)c2n1` (stereo partly drawn) [Example 179, 6-((10-Hydroxy-7-((R)-2-phenylpiperazine-1-carbonyl)-7-azaspiro[4.5]decan-10-yl)methyl)-2-methyl-2,6-dihydro-7H-pyrazolo[4,3-d]pyrimidin-7-one], 5 to 50 µM.
As for `C[C@H](CC(F)(F)F)C(=O)N1CCC(O)(Cn2cnc3c(cnn3C)c2=O)C2(CCCC2)C1` (stereo partly drawn) [Example 180, 5-((10-Hydroxy-7-((R)-4,4,4-trifluoro-2-methylbutanoyl)-7-azaspiro[4.5]decan-10-yl)methyl)-1-methyl-1,5-dihydro-4H-pyrazolo[3,4-d]pyrimidin-4-one], the IC50 lay within 5 to 50 µM.
Consider `C[C@H](CC(F)(F)F)C(=O)N1CCC(O)(Cn2cnc3c(cnn3C3CC3)c2=O)C2(CCCC2)C1` (stereo partly drawn) [Example 181, 1-Cyclopropyl-5-((10-hydroxy-7-((R)-4,4,4-trifluoro-2-methylbutanoyl)-7-azaspiro[4.5]decan-10-yl)methyl)-1,5-dihydro-4H-pyrazolo[3,4-d]pyrimidin-4-one], for which the half-inhibitory concentration (IC50) was in the range of 5 to 50 µM.
`Cn1ncc2c(=O)n(CC3(O)CCN(C(=O)N4CCNC[C@H]4c4ccccc4)CC34CCCC4)cnc21` (stereo partly drawn) [Example 182, 5-((10-Hydroxy-7-((R)-2-phenylpiperazine-1-carbonyl)-7-azaspiro[4.5]decan-10-yl)methyl)-1-methyl-1,5-dihydro-4H-pyrazolo[3,4-d]pyrimidin-4-one]: the half-inhibitory concentration (IC50) is under 0.5 µM.
With `O=C(N1CCC(O)(Cn2cnc3c(cnn3C3CC3)c2=O)C2(CCCC2)C1)N1CCNC[C@H]1c1ccccc1` (stereo partly drawn) [Example 183, 1-Cyclopropyl-5-((10-hydroxy-7-((R)-2-phenylpiperazine-1-carbonyl)-7-azaspiro[4.5]decan-10-yl)methyl)-1,5-dihydro-4H-pyrazolo[3,4-d]pyrimidin-4-one] the figure was under 0.5 µM.
`CSc1ncc2c(=O)n(C[C@]3(O)CCN(C(=O)N4CCNC[C@H]4c4ccccc4)CC34CCCC4)ccc2n1` [Example 184, 6-(((S)-10-Hydroxy-7-((R)-2-phenylpiperazine-1-carbonyl)-7-azaspiro[4.5]decan-10-yl)methyl)-2-(methylthio)pyrido[4,3-d]pyrimidin-5(6H)-one]: the IC50 was under 0.5 µM.
In the case of `O=C(N1CC[C@@](O)(Cn2ccc3ncncc3c2=O)C2(CCCC2)C1)N1CCNC[C@H]1c1ccccc1` [Example 185, 6-(((S)-10-Hydroxy-7-((R)-2-phenylpiperazine-1-carbonyl)-7-azaspiro[4.5]decan-10-yl)methyl)pyrido[4,3-d]pyrimidin-5(6H)-one], the half-inhibitory concentration (IC50) is under 0.5 µM.
With `CSc1cn(CC2(O)CCN(C(=O)N3CCNC[C@H]3c3ccccc3)CC23CCCC3)c(=O)cc1-c1ccccc1` (stereo partly drawn) [Example 186, 1-((10-Hydroxy-7-((R)-2-phenylpiperazine-1-carbonyl)-7-azaspiro[4.5]decan-10-yl)methyl)-5-(methylthio)-4-phenylpyridin-2(1H)-one], the IC50 is under 0.5 µM.
Consider `C[S+]([O-])c1cn(CC2(O)CCN(C(=O)N3CCNC[C@H]3c3ccccc3)CC23CCCC3)c(=O)cc1-c1ccccc1` (stereo partly drawn) [Example 187, 1-((10-Hydroxy-7-((R)-2-phenylpiperazine-1-carbonyl)-7-azaspiro[4.5]decan-10-yl)methyl)-5-(methylsulfinyl)-4-phenylpyridin-2(1H)-one], for which the IC50 is under 0.5 µM.
With `CS(=O)(=O)c1cn(CC2(O)CCN(C(=O)N3CCNC[C@H]3c3ccccc3)CC23CCCC3)c(=O)cc1-c1ccccc1` (stereo partly drawn) [Example 188, 1-((10-Hydroxy-7-((R)-2-phenylpiperazine-1-carbonyl)-7-azaspiro[4.5]decan-10-yl)methyl)-5-(methylsulfonyl)-4-phenylpyridin-2(1H)-one] the figure was under 0.5 µM; with `CS(=N)(=O)c1cn(CC2(O)CCN(C(=O)N3CCNC[C@H]3c3ccccc3)CC23CCCC3)c(=O)cc1-c1ccccc1` (stereo partly drawn) [Example 189, 1-((10-Hydroxy-7-((R)-2-phenylpiperazine-1-carbonyl)-7-azaspiro[4.5]decan-10-yl)methyl)-5-(S-methylsulfonimidoyl)-4-phenylpyridin-2(1H)-one], under 0.5 µM; with `CS(=N)(=O)c1cn(CC2(O)CCN(C(=O)N3CCOC[C@H]3c3ccccc3)CC23CCCC3)c(=O)cc1-c1ccccc1` (stereo partly drawn) [Example 190, 1-((10-Hydroxy-7-((R)-3-phenylmorpholine-4-carbonyl)-7-azaspiro[4.5]decan-10-yl)methyl)-5-(S-methylsulfonimidoyl)-4-phenylpyridin-2(1H)-one], under 0.5 µM.
For `CS(C)(=O)=Nc1cn(CC2(O)CCN(C(=O)N3CCNC[C@H]3c3ccccc3)CC23CCCC3)c(=O)cc1-c1ccccc1` (stereo partly drawn) [Example 191, 5-((Dimethyl(oxo)-λ^6-sulfaneylidene)amino)-1-((10-hydroxy-7-((R)-2-phenylpiperazine-1-carbonyl)-7-azaspiro[4.5]decan-10-yl)methyl)-4-phenylpyridin-2(1H)-one] the value was under 0.5 µM.
Consider `O=C(NCc1ccccc1)N1CCC(O)(Cn2ccc(-c3ccccc3)cc2=O)C2(CCCC2)C1` (stereo not shown) [Example 192, N-Benzyl-10-hydroxy-10-((2-oxo-4-phenylpyridin-1(2H)-yl)methyl)-7-azaspiro[4.5]decane-7-carboxamide], for which the IC50 was under 0.5 µM.
On to `O=C(NCc1ccccc1)N1CCC(O)(Cn2cnc(-c3ccccc3)cc2=O)C2(CCCC2)C1` (stereo not shown) [Example 193, N-Benzyl-10-hydroxy-10-((6-oxo-4-phenylpyrimidin-1(6H)-yl)methyl)-7-azaspiro[4.5]decane-7-carboxamide], for which the IC50 was under 0.5 µM.
With `O=C(NCc1ccccc1)N1CCC(O)(Cn2cnc(-c3ccccc3F)cc2=O)C2(CC2)C1` (stereo not shown) [Example 194, N-Benzyl-8-((4-(2-fluorophenyl)-6-oxopyrimidin-1(6H)-yl)methyl)-8-hydroxy-5-azaspiro[2.5]octane-5-carboxamide] the figure was 50 to 250 µM; with `CC1(C)CN(C(=O)NCc2ccccc2)CCC1(O)Cn1cnc(-c2ccccc2F)cc1=O` (stereo not shown) [Example 195, N-Benzyl-4-((4-(2-fluorophenyl)-6-oxopyrimidin-1(6H)-yl)methyl)-4-hydroxy-3,3-dimethylpiperidine-1-carboxamide], 5 to 50 µM; with `O=C(NCC(F)(F)F)N1CCC(O)(Cn2cnc(-c3ccccc3)cc2=O)C2(CCCC2)C1` (stereo not shown) [Example 196, 10-Hydroxy-10-((6-oxo-4-phenylpyrimidin-1(6H)-yl)methyl)-N-(2,2,2-trifluoroethyl)-7-azaspiro[4.5]decane-7-carboxamide], 5 to 50 µM.
For `O=C(NCc1ccccn1)N1CCC(O)(Cn2cnc(-c3ccccc3)cc2=O)C2(CCCC2)C1` (stereo not shown) [Example 197, 10-Hydroxy-10-((6-oxo-4-phenylpyrimidin-1(6H)-yl)methyl)-N-(pyridin-2-ylmethyl)-7-azaspiro[4.5]decane-7-carboxamide] the value was 50 to 250 µM.
